Results taken from US20100273876A1, “ANTIBACTERIAL FORMULATION COMPRISING A DIALKYL SULPHOSUCCINATE AND A CARBANILIDE ANTIBACTERIAL AGENT” (priority 2007, published 2010).
≈ marks a conversion by molar mass, not a printed value. Like-named read-outs stand apart in the source and are kept apart here.

What was measured:
P. acnes NCTC 737 [1] = experiment: Minimum inhibitory concentration (MIC) assay, liquid medium; format: cell-based, Propionibacterium acnes
Experimental: (§1) The propionibacteria were cultured and maintained on Wilkins-Chalgren Anaerobe Medium (agar and broth) at pH 6.0; all cultures were incubated anaerobically at 37° C. for 72 hours.
This is a standard international method for quantitatively assessing the antimicrobial activity of a compound in a liquid medium. The method used a sterile 96-well microtitre plate, capable of holding about 200 μl of liquid per well. The wells contained liquid culture medium and ranges of decreasing concentrations of the relevant test compound in doubling dilutions (eg, 1000, 500, 250, 125 . . . μg/ml, etc. down to 0.49 μg/ml). The culture media were as described above.
The wells were inoculated with a liquid suspension of freshly grown micro-organism and incubated under the conditions described above. After incubation, the microtitre plate was examined visually (with the aid of a light box) for cloudiness in each well, which would indicate microbial growth. The MIC value was recorded as the lowest concentration of test compound required to inhibit microbial growth, ie, the lowest concentration for which the liquid in the well remained clear.
The assays included both negative (culture medium with no micro-organisms) and positive (culture medium plus diluting solvent plus micro-organism) controls.

P. acnes NCTC 737 [2] = experiment: Disc diffusion / synergy disc diffusion assay ((S)DDA); format: cell-based, Propionibacterium acnes; details: for (S)DDA: diluted 1:2 with placebo, 10 μl per disc; for SDDA with DOSS: 200 μg TCC + 50 μg DOSS on one disc
Experimental: as §1
(§2) A sterile paper disc was impregnated with a sample of the test compound in a suitable solvent and 30 minutes allowed for the solvents to evaporate (where possible). The disc was then placed on an agar plate onto which the test micro-organism had been inoculated. The plate was then incubated under the conditions described above, following which it was examined visually for signs of microbial growth. If the test compound had antimicrobial activity, a circular zone of no growth would be obtained around the disc. The diameter of this zone of “inhibition” was measured using a ProtoCOL™ automated zone sizer (Synbiosis, Cambridge, UK). In general, a greater diameter and/or area of the zone of inhibition indicates a greater antimicrobial activity in the relevant test compound, although other factors such as test compound mobility through the agar gel may also influence the result.
(§3) Two test a compounds A and B were placed on a single paper disc and the above described DDA procedure repeated. An increase in diameter of the zone of inhibition, compared to the greater of the zone diameters for the two compounds individually, was taken to indicate potential antimicrobial synergy. In practical terms, an increase of greater than 5 mm could be treated as significant.
Both the DDA and the SDDA test may be carried out using an agar gel supplemented with lipid and/or salt to simulate some of the major components present in human skin and to assess whether these substances might reduce the antimicrobial activity observed for the test compound. Performance under these conditions can provide a more reliable indication of activity on topical application. The supplements used in Examples 1, 11, 12 and 13 below were lipid (either Tween™ 80 at 1% v/v (Example 1) or triolein at 1% v/v (Examples 11, 12 and 13) and sodium chloride (100 mM).

P. acnes NCTC 737 [3] = experiment: Well diffusion assay; format: cell-based, Propionibacterium acnes; details: gel (Solutol HS 15, ethanol, hydroxyethyl cellulose, water) with 5% w/w DOSS and/or 0.2% w/w TCC, diluted 1:2 with placebo gel
Experimental: The propionibacteria were cultured and maintained on Wilkins-Chalgren Anaerobe Medium (agar and broth) at pH 6.0; all cultures were incubated anaerobically at 37° C. for 72 hours. A hole with a diameter of 8 mm was bored into the centre of an agar plate inoculated (swabbed) with the test-microorganism using a sterile “cork” borer (size No. 4). A volume (100 μl unless stated otherwise) of the test compound(s), either formulated or in a suitable solvent, was then placed into the bored hole. The plate was incubated under the conditions described above, following which it was examined visually for signs of microbial growth. If the test compound had antimicrobial activity, a circular zone of no growth would be obtained around the bored hole. The diameter of this zone of “inhibition” was measured using a ProtoCOL™ automated zone sizer (Synbiosis, Cambridge, UK). In general, a greater diameter and/or area of the zone of inhibition indicates a greater antimicrobial activity in the relevant test compound, although other factors such as test compound mobility through the agar gel, and the extent to which a compound is released from a formulation, may also influence the result.

EMRSA 15 = experiment: (S)DDA disc diffusion; format: cell-based, Staphylococcus aureus; details: 200 μg per disc
Experimental: as §2, §3
(§4) The activities of DOSS and TCC against S. aureus ATCC 29213 and EMRSA 15 were determined using (S)DDAs as described above. 200 μg of the DOSS and/or the TCC were loaded onto each disc. All the experiments were conducted in triplicate.

S. aureus ATCC 29213 = experiment: (S)DDA disc diffusion; format: cell-based, Staphylococcus aureus; details: 200 μg per disc
Experimental: as §2, §3, §4

[4] = test system: Por. gingivalis NCTC 11834; experiment: (S)DDA disc diffusion; format: cell-based, Porphyromonas gingivalis; details: for DDA: 200 μg per disc
Experimental: The P. gingivalis strains were cultured and maintained on Wilkins-Chalgren Anaerobe Medium (agar and broth) at pH 7.0; all cultures were incubated anaerobically at 37° C. for 5-7 days.
as §2, §3
(§5) For the (S)DDA experiments; 200 μg of the DOS salts and/or the TCC were loaded onto each disc for Por. gingivalis experiments. For the Strep. mutans experiments, 200 μg of the TCC and 50 μg of DOSS were used on each disc. All the experiments were conducted in triplicate.

Strep. mutans ATCC 25175 = experiment: (S)DDA disc diffusion; format: cell-based, Streptococcus mutans
Experimental: The S. mutans was cultured and maintained on Wilkins-Chalgren Anaerobe Medium (agar and broth) at pH 7.0 supplemented with 1 g/L glucose; all cultures were incubated at 37° C. for 48 h in an atmosphere containing 5% CO2.
as §2, §3, §5

E. faecalis ATCC 29212 = experiment: (S)DDA disc diffusion; format: cell-based, Enterococcus faecalis; details: 200 μg per disc
Experimental: as §2
Two test a compounds A and B were placed on a single paper disc and the above described DDA procedure repeated. […]
The activities of DOSS and TCC were determined, using (S)DDAs, against a panel of further test micro-organisms, namely B. cereus ATCC 11778, Bact. fragilis ATCC 25285, Clost. difficile […] and E. faecalis ATCC 29212. […]

[5] = supplemented with salt (sodium chloride 100 mM) & lipid (Tween 80 1% v/v), 50 μg DOSS or 200 μg TCC per disc
[6] = unsupplemented, 50 μg DOSS or 200 μg TCC per disc
[7] = 200 μg TCC or 50 μg DOSS per disc
[8] = unsupplemented, with respect to the TCC

With dioctyl sodium sulphosuccinate [DOSS] the MIC (P. acnes NCTC 737 [1]) was 15.6 µg/mL, the DDA (P. acnes NCTC 737 [2]; 200 μg per disc, pH 6.0, single replicates) was 47.63 mm and the “DDA + salt” value (P. acnes NCTC 737 [2]; 200 μg per disc, pH 6.0, sodium chloride 100 mM) was 45.14 mm. For the same molecule, the “DDA + lipid” value (P. acnes NCTC 737 [2]; 200 μg per disc, pH 6.0, triolein 1% v/v) was 47.32 mm, the “(S)DDA” value (P. acnes NCTC 737 [2]; 2.5% w/w DOSS solution (Solutol HS 15/ethanol/water)) was 0.00 mm and the “(S)DDA” value (P. acnes NCTC 737 [2]; 5% w/w DOSS solution) was 31.88 mm. For the same molecule, the “(S)DDA” value (P. acnes NCTC 737 [2]; 7.5% w/w DOSS solution) was 40.52 mm, the DDA (P. acnes NCTC 737 [2]; [5]) was 0.00 mm and the DDA (P. acnes NCTC 737 [2]; [6]) was 11.81 mm. For the same molecule, the “(S)DDA” value (P. acnes NCTC 737 [3]) was 42.40 mm, the DDA (EMRSA 15) was 12.42 mm and the DDA (S. aureus ATCC 29213) was 12.22 mm. The SDDA area increase [4] was 54.34%, the SDDA increase [4] was 12.39 mm and the “SDDA with TCC” value ([4]; 200 μg DOS salt + 200 μg TCC on one disc) was 63.52 mm. For the same molecule, the DDA [4] was 51.13 mm, the SDDA area increase (Strep. mutans ATCC 25175) was 42.61% and the SDDA increase (Strep. mutans ATCC 25175) was 4.68 mm. The “SDDA with TCC” value (Strep. mutans ATCC 25175; 50 μg DOSS + 200 μg TCC on one disc) was 28.78 mm, the DDA (Strep. mutans ATCC 25175; [7]) was 24.1 mm and the DDA (Strep. mutans ATCC 25175; 200 μg per disc) was 40.25 mm. It also gave a DDA (E. faecalis ATCC 29212) of 10.31 mm.

In the case of `O=C(Nc1ccc(Cl)cc1)Nc1ccc(Cl)c(Cl)c1` [TCC, N-(4-chlorophenyl)-N′-(3,4-dichlorophenyl) urea], the MIC (P. acnes NCTC 737 [1]; Cutibacterium acnes, NCTC737, read-out: MIC) is reported as 0.12 µg/mL (≈ 0.38 µM), the DDA (P. acnes NCTC 737 [2]; 200 μg of each test compound per disc (Example 2)) is reported as 15.69 mm and the “(S)DDA” value (P. acnes NCTC 737 [2]; 0.1% w/w TCC solution) is reported as 0.00 mm. For the same molecule, the “(S)DDA” value (P. acnes NCTC 737 [2]; 0.2% w/w TCC solution) was 0.00 mm, the “(S)DDA” value (P. acnes NCTC 737 [2]; 0.3% w/w TCC solution) was 30.10 mm and the SDDA area increase (P. acnes NCTC 737 [2]; supplemented with salt & lipid) was “∞”. The SDDA increase (P. acnes NCTC 737 [2]; supplemented with salt & lipid) was 10.57 mm, the “SDDA with DOSS” value (P. acnes NCTC 737 [2]; supplemented with salt & lipid) was 10.57 mm and the DDA (P. acnes NCTC 737 [2]; [5]) was 0.00 mm. For the same molecule, the DDA (P. acnes NCTC 737 [2]; [6]) was 18.76 mm, the “SDDA with DOSS” value (P. acnes NCTC 737 [2]; unsupplemented) was 29.95 mm and the SDDA area increase (P. acnes NCTC 737 [2]; [8]) was 154.9%. The SDDA increase (P. acnes NCTC 737 [2]; [8]) was 11.19 mm, the “(S)DDA” value (P. acnes NCTC 737 [3]) was 0 mm and the DDA (EMRSA 15) was 12.42 mm. For the same molecule, the DDA (S. aureus ATCC 29213) was 12.84 mm, the DDA [4] was 23.73 mm and the DDA (Strep. mutans ATCC 25175; [7]) was 11.95 mm. The DDA (E. faecalis ATCC 29212) was 9.68 mm.
